Experimental data published in patent US20080219973A1, “Pharmaceutical Composition Having Inhibitory Effect on Overproduction and Accumulation of Extracellular Matrix” (TEIJIN LIMITED, priority 1998, published 2008).

Legend:
Type in all cases: cell-based
[1] = system: rat mesangium cells; test: Suppressive activity of galectin-3 on the cellular death of rat mesangium cells (MTS tetrazolium conversion); conditions: 50 μg/ml galectin-3; presence and absence of 0.4 ng/ml TGF-β; day 1-4; FIG. 3
Method: Rat mesangium cells were separated from Sprague-Dawley rats according to the method of Striker et al. (Striker, G. E., et al., Lab. Invest. (1985) 53; 123-128). The separated rat mesangium cells were cultured at 37° C. in the presence of 5% CO2 in the wells of a 96-well plate using an essential medium (DMEM/F12 (1:1) culture medium containing 60 μg/ml penicillin, 100 μg/ml streptomycin, manufactured by Gibco BRL) supplemented with 10% fetal bovine serum. After culturing to semi-confluence, the cultured rat mesangium cells were washed with the essential medium, cultured for 2 days in the essential medium supplemented with 0.1% bovine serum albumin (Sigma), and then were further cultured for 1 to 4 days in the essential medium supplemented with 0.1% bovine serum albumin (Sigma) containing 0 or 50 μg/ml galectin-3 and 0 or 0.4 ng/ml TGF-β. On day 1, 2, 3, and 4 after the addition of galectin-3 and TGF-β, the amount of the cultured rat mesangium cells that survived in their respective wells were measured using as an index the conversion from MTS tetrazolium (Cell Titer 96 Aqueous one solution manufactured by Promega) to formazan by the living cells.

[2] = system: rat mesangium cells; test: Promoting effect of galectin-3 on collagen type IV production by mesangium cells (sandwich ELISA); conditions: 10 or 30 μg/ml galectin-3; 0-1.6 ng/ml TGF-β; day 3; FIG. 4
Method: Rat mesangium cells were separated in a similar manner to that of Example 3. The separated mesangium cells were cultured at 37° C. in the presence of 5% CO2 in the wells of a 96-well plate using an essential medium (DMEM/F12 (1:1) culture medium containing 60 μg/ml penicillin, 100 μg/ml streptomycin, manufactured by Gibco BRL) supplemented with 10% fetal bovine serum. After culturing to confluence, the cultured rat mesangium cells were washed with the essential medium, cultured for 1 to 2 days in the essential medium supplemented with 0.1% bovine serum albumin (Sigma), and then were further cultured for 3 days in the essential medium supplemented with 0.1% bovine serum albumin (Sigma) containing 0, 10 or 30 μg/ml galectin-3 and 0, 0.1, 0.4 or 1.6 ng/ml TGF-β. On day 3 after the addition of galectin-3 and TGF-β, the amount of type IV collagen accumulated in the culture liquid was measured using a sandwich ELISA method that employed a goat anti-type IV collagen antibody as the immobilized antibody and a biotin-labeled goat anti-type IV collagen antibody (Chemicon) as the primary antibody. The amount of type IV collagen in the culture liquid of each well was normalized by dividing it by the amount of the living cells in each well determined in a similar manner to that described in Example 3.

[3] = target: galectin-3 (Homo sapiens, UniProt P17931); test: Inhibition by galectin-3-binding inhibiting sugar of galectin-3-promoted collagen type IV production by rat mesangium cells; conditions: 0.4 μg/ml galectin-3, 0.25-2 mM LNFP-I, day 2, FIG. 6
galectin-3, sequence (P17931 whole entry, species assumed): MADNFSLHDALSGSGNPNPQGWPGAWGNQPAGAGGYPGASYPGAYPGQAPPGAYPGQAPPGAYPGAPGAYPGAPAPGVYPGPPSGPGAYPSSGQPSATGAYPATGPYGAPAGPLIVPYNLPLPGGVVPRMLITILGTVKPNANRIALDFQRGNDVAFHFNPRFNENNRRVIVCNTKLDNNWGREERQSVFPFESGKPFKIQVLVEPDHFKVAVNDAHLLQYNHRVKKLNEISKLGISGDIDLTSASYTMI
Method: Rat mesangium cells were separated in a similar manner to that described in Example 3. The separated rat mesangium cells were cultured at 37° C. in the presence of 5% CO2 in the wells of a 96-well plate using an essential medium (DMEM/F12 (1:1) culture medium containing 60 μg/ml penicillin, 100 μg/ml streptomycin, manufactured by Gibco BRL) supplemented with 10% fetal bovine serum. […] On day 2 after the addition of galectin-3 and LNFP-I, the amount of type IV collagen accumulated in the culture liquid of each well was measured using a sandwich ELISA method that employed a goat anti-type IV collagen antibody (Chemicon) as an immobilized antibody and a biotin-labeled goat anti-type IV collagen antibody (Chemicon) as a primary antibody. The amount of type IV collagen in the culture medium of each well was normalized by dividing it by the amount of the living cells in each well determined in a similar manner to that described in Example 4.

Substance | cellular death of the rat mesangium cells (amount of surviving cells) [1] | production and/or accumulation of type IV collagen in culture liquid, normalized to living cells [2] | suppression of galectin-3-promoted production and/or accumulation of type IV collagen [3]
galectin-3: protein of about 30 Kd belonging to the family of β-galactoside binding protein; a lectin | suppress the cellular death | promotes the production and/or the accumulation of type IV collagen | 
lacto-n-fucopentaose I |  |  | suppresses the promotion of the production and/or the accumulation of type IV collagen
